For orientation: EC50 means the concentration giving half of the maximal effect.

The values that follow come from US8399681B2, “Substituted aminothiazolone indazoles as estrogen related receptor-alpha modulators” (Janssen Pharmaceutica NV, priority 2009, dated 2013).

This experiment addresses T1, ERR1 (also known as ERR-α or ERR-1) (Homo sapiens, UniProt P11474).
T1 sequence (P11474 193-421 limits assumed): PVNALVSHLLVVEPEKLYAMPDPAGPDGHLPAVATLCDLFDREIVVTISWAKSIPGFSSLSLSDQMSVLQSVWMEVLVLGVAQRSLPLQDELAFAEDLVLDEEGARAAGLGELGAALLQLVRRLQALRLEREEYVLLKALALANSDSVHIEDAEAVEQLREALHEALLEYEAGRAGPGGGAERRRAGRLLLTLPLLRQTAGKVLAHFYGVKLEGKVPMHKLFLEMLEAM
Briefly: TR-FRET assay (disruption of co-activator peptide binding). To be noted: 6His-tagged ERR1 LBD, GST-hSRC2 co-activator polypeptide; average of 3 independent experiments. In kind it is biochemical. A digest of the protocol: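 His6-ERR1 LBD (6 nM) with GST-SRC-2 peptide (6 nM), anti-GST Eu cryptate (30 nM) and anti-His XL665 (7.5 nM) in Tris pH 8/KCl/DTT/BSA buffer, equilibrated 4-18 h at 25 °C. Ex 340, em 615/665 nm; hyperbolic dose-response fit, mean of 3 experiments.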
On the technique in general: TR-FRET usually uses a lanthanide donor and a delayed reading to cut background.

Take `CN1CCN(C2=NC(=O)/C(=C/c3ccc4c(cnn4Cc4ccc(C(C)(C)O)cc4Cl)c3)S2)CC1` [Example 232, 5-({1-[2-Chloro-4-(1-hydroxy-1-methylethyl)benzyl]-1H-indazol-5-yl}methylidene)-2-(4-methylpiperazin-1-yl)-1,3-thiazol-4(5H)-one]: a half-maximal response (EC50) required 795 nM.
As to `C[C@@H]1CN(C2=NC(=O)/C(=C/c3ccc4c(cnn4Cc4ccc(C(C)(C)O)cc4Cl)c3)S2)C[C@H](C)N1` [Example 233, 5-({1-[2-Chloro-4-(1-hydroxy-1-methylethyl)benzyl]-1H-indazol-5-yl}methylidene)-2-(3,5-(cis)-dimethylpiperazin-1-yl)-1,3-thiazol-4(5H)-one], the half-maximal effective concentration (EC50) is 127 nM.
The value for `COC[C@@H]1CN(C2=NC(=O)/C(=C/c3ccc4c(cnn4Cc4ccc(C(F)(F)F)cc4C(F)(F)F)c3)S2)CCO1` [Example 234, 5-({1-[2,4-Bis(trifluoromethyl)benzyl]-1H-indazol-5-yl}methylidene)-2-[2-(S)-(methoxymethyl)morpholin-4-yl]-1,3-thiazol-4(5H)-one] was 16 nM.
The value for `COC[C@@H]1CN(C2=NC(=O)/C(=C/c3ccc4c(cnn4Cc4ccc(Cl)cc4C(F)(F)F)c3)S2)CCO1` [Example 235, 5-({1-[4-Chloro-2-(trifluoromethyl)benzyl]-1H-indazol-5-yl}methylidene)-2-[2-(S)-(methoxymethyl)morpholin-4-yl]-1,3-thiazol-4(5H)-one] was 5 nM; that for `COC[C@@H]1CN(C2=NC(=O)/C(=C/c3ccc4c(cnn4Cc4ccc(O)cc4C(F)(F)F)c3)S2)CCO1` [Example 236, 5-({1-[4-Hydroxy-2-(trifluoromethyl)benzyl]-1H-indazol-5-yl}methylidene)-2-[2(S)-(methoxymethyl)morpholin-4-yl]-1,3-thiazol-4(5H)-one] was 3 nM.
The value for `O=C1N=C(N2CCO[C@@H](CO)C2)S/C1=C\c1ccc2c(cnn2Cc2ccc(Br)cc2C(F)(F)F)c1` [Example 237] was 6 nM; that for `C[C@@H]1CN(C2=NC(=O)/C(=C/c3ccc4c(cnn4Cc4ccc(C(F)(F)F)cc4C(F)(F)F)c3)S2)C[C@H](C)N1` [Example 238, 5-({1-[2,4-(trifluoromethyl)benzyl]-1H-indazol-5-yl}methylidene)-2-(3,5-(cis)-dimethylpiperazin-1-yl)-1,3-thiazol-4(5H)-one] was 11 nM.
Compound `C[C@@H]1CN(C2=NC(=O)/C(=C/c3ccc4c(cnn4Cc4ccc(C(F)(F)F)cc4C(F)(F)F)c3)S2)C[C@H](C)N1C` [Example 239, 5-({1-[2,4-Bis(trifluoromethyl)benzyl]-1H-indazol-5-yl}methylidene)-2-((3R,5S)-3,4,5-trimethylpiperazin-1-yl)-1,3-thiazol-4(5H)-one] had an EC50 of 18 nM.
As to `C[C@@H]1CN(C2=NC(=O)/C(=C/c3ccc4c(cnn4Cc4ccc(C(F)(F)F)cc4C(F)(F)F)c3)S2)C[C@H](C)[N+]1(C)C` [Example 240, (2R,6S)-4-[5-({1-[2,4-Bis(trifluoromethyl)benzyl]-1H-indazol-5-yl}methylidene)-4-oxo-4,5-dihydro-1,3-thiazol-2-yl]-1,1,2,6-tetramethylpiperazin-1-ium chloride], the EC50 worked out at 9 nM.
For the compound `C[C@@H]1CN(C2=NC(=O)/C(=C/c3ccc4c(cnn4Cc4ccc(Cl)cc4C(F)(F)F)c3)S2)C[C@H](C)N1` [Example 241, 5-({1-[4-Chloro-2-(trifluoromethyl)benzyl]-1H-indazol-5-yl}methylidene)-2-((3R,5S)-3,5-dimethylpiperazin-1-yl)-1,3-thiazol-4(5H)-one], the EC50 came out at 4 nM.
Next, `CN1CCN(C2=NC(=O)/C(=C/c3ccc4c(cnn4Cc4ccc(C(C)(C)O)cc4C(F)(F)F)c3)S2)CC1` [Example 242, 5-({1-[4-(1-Hydroxy-1-methylethyl)-2-(trifluoromethyl)benzyl]-1H-indazol-5-yl}methylidene)-2-(4-methylpiperazin-1-yl)-1,3-thiazol-4(5H)-one]: 30 nM; `C[C@@H]1CN(C2=NC(=O)/C(=C/c3ccc4c(cnn4Cc4ccc(C(C)(C)O)cc4C(F)(F)F)c3)S2)C[C@H](C)N1` [Example 243, 2-((3R,5S)-3,5-Dimethylpiperazin-1-yl)-5-({1-[4-(1-hydroxy-1-methylethyl)-2-(trifluoromethyl)benzyl]-1H-indazol-5-yl}methylidene)-1,3-thiazol-4(5H)-one]: 38 nM.
Take `CC(C)(O)c1ccc(Cn2ncc3cc(/C=C4\SC(N5CCO[C@H](CO)C5)=NC4=O)ccc32)c(C(F)(F)F)c1` [Example 244, 5-({1-[4-(1-Hydroxy-1-methylethyl)-2-(trifluoromethyl)benzyl]-1H-indazol-5-yl}methylidene)-2-[2-(S)-(hydroxymethyl)morpholin-4-yl]-1,3-thiazol-4(5H)-one]: the EC50 turned out to be 110 nM.
Next, `CC(C)(O)c1ccc(Cn2ncc3cc(/C=C4\SC(N5CCC(C(=O)O)CC5)=NC4=O)ccc32)c(C(F)(F)F)c1` [Example 245]: 235 nM; `CC(C)(O)c1ccc(Cn2ncc3cc(/C=C4\SC(N5CCN[C@@H](CO)C5)=NC4=O)ccc32)c(C(F)(F)F)c1` [Example 246, 5-({1-[4-(1-Hydroxy-1-methylethyl)-2-(trifluoromethyl)benzyl]-1H-indazol-5-yl}methylidene)-2-[3-(R)-(hydroxymethyl)piperazin-1-yl]-1,3-thiazol-4(5H)-one]: 230 nM.
The value for `C=C(C)c1ccc(Cn2ncc3cc(/C=C4\SC(N5CCN[C@@H](CO)C5)=NC4=O)ccc32)c(C(F)(F)F)c1` [Example 247, 2-[3-(R)-(Hydroxymethyl)piperazin-1-yl]-5-({1-[4-(1-methylethenyl)-2-(trifluoromethyl)benzyl]-1H-indazol-5-yl}methylidene)-1,3-thiazol-4(5H)-one] was 41 nM; that for `COc1ccc(Cn2ncc3cc(/C=C4\SC(N5CCN[C@@H](CO)C5)=NC4=O)ccc32)c(C(F)(F)F)c1` [Example 248, 2-[3-(R)-(Hydroxymethyl)piperazin-1-yl]-5-({1-[4-methoxy-2-(trifluoromethyl)benzyl]-1H-indazol-5-yl}methylidene)-1,3-thiazol-4(5H)-one] was 14 nM.
The value for `O=C1N=C(N2CCO[C@@H](CO)C2)S/C1=C\c1ccc2c(cnn2Cc2ccc(O)cc2C(F)(F)F)c1` [Example 249, 2-[(2R)-2-(Hydroxymethyl)morpholin-4-yl]-5-({1-[4-hydroxy-2-(trifluoromethyl)benzyl]-1H-indazol-5-yl}methylidene)-1,3-thiazol-4(5H)-one] was 4 nM; that for `O=C1N=C(N2CCN[C@@H](CO)C2)S/C1=C\c1ccc2c(cnn2Cc2ccc(O)cc2C(F)(F)F)c1` [Example 250, 2-[(3R)-3-(Hydroxymethyl)piperazin-1-yl]-5-({1-[4-hydroxy-2-(trifluoromethyl)benzyl]-1H-indazol-5-yl}methylidene)-1,3-thiazol-4(5H)-one] was 190 nM.
Take `O=C1N=C(N2CCO[C@H](CO)C2)S/C1=C\c1ccc2c(cnn2Cc2ccc(O)cc2C(F)(F)F)c1` [Example 251, 2-[(2S)-2-(Hydroxymethyl)morpholin-4-yl]-5-({1-[4-hydroxy-2-(trifluoromethyl)benzyl]-1H-indazol-5-yl}methylidene)-1,3-thiazol-4(5H)-one]: a half-maximal effect (EC50) was put at 4 nM.
Next, `CN(C)[C@@H]1CCN(C2=NC(=O)/C(=C/c3ccc4c(cnn4Cc4ccc(C(F)(F)F)cc4C(F)(F)F)c3)S2)C1` [Example 252, 5-({1-[2,4-Bis(trifluoromethyl)benzyl]-1H-indazol-5-yl}methylidene)-2-[(3R)-3-(dimethylamino)pyrrolidin-1-yl]-1,3-thiazol-4(5H)-one]: 190 nM.
Next, `CN1CCN(C2=NC(=O)/C(=C/c3ccc4c(cnn4Cc4ccc(C(F)(F)F)cc4C(F)(F)F)c3)S2)[C@@H](CO)C1` [Example 253, 5-({1-[2,4-Bis(trifluoromethyl)benzyl]-1H-indazol-5-yl}methylidene)-2-[(2R)-2-(hydroxymethyl)-4-methylpiperazin-1-yl]-1,3-thiazol-4(5H)-one]: 5 nM.
For the compound `CN1CCN(C2=NC(=O)/C(=C/c3ccc4c(cnn4Cc4ccc(Cl)cc4C(F)(F)F)c3)S2)[C@@H](CO)C1` [Example 254, 5-({1-[4-Chloro-2-(trifluoromethyl)benzyl]-1H-indazol-5-yl}methylidene)-2-[(2R)-2-(hydroxymethyl)-4-methylpiperazin-1-yl]-1,3-thiazol-4(5H)-one], the EC50 stood at 6.5 nM.
Take `CC[C@H]1CNCCN1C1=NC(=O)/C(=C/c2ccc3c(cnn3Cc3ccc(Cl)cc3C(F)(F)F)c2)S1` [Example 255]: a half-maximal response (EC50) required 28 nM.
Next, `CC[C@H]1CN(C)CCN1C1=NC(=O)/C(=C/c2ccc3c(cnn3Cc3ccc(Cl)cc3C(F)(F)F)c2)S1` [Example 256, 5-({1-[4-Chloro-2-(trifluoromethyl)benzyl]-1H-indazol-5-yl}methylidene)-2-((2S)-2-ethyl-4-methylpiperazin-1-yl)-1,3-thiazol-4(5H)-one]: 49 nM.
The value for `N[C@@H]1C[C@H](CO)N(C2=NC(=O)/C(=C/c3ccc4c(cnn4Cc4ccc(Cl)cc4C(F)(F)F)c3)S2)C1` [Example 257, 2-[(2R,4R)-4-Amino-2-(hydroxymethyl)pyrrolidin-1-yl]-5-({1-[4-chloro-2-(trifluoromethyl)benzyl]-1H-indazol-5-yl}methylidene)-1,3-thiazol-4(5H)-one] was 96 nM.
